From patent publication US11845919B2, “Blood culture system with low media volume” (BECTON, DICKINSON AND COMPANY, priority 2015, dated 2023)

tested on: antibiotic/microorganism combinations; assay: TTD tests per antibiotic, Low Volume/Low Ratio vs PlusAer control; format: cell-based; settings: drug amount at peak serum level in 7 ml of blood
Experimental: The performance of 1:1 blood-to-broth ratio in the presence of an inhibitory antibiotic was tested in comparison to a standard diluted blood-to-broth ratio at least 1:3. Two different sample preparations for the 1:1 blood-to-broth ratio are described below.
FIG. 3A illustrates a low volume/low ratio preparation that is prepared in a 30 ml vial with the resin and lytic media disposed in separate chambers. The preparation contained resin and 8 ml total lytic media. The sensor in the container was a solid-state fluorescent 02 sensor. The fluorescent signal changes were used to determine microorganism growth. […] The low volume/low ratio preparation provided a 1:1 blood-to-broth ratio. The total 8 ml lytic media were separated into two parts. One part of the lytic media was in the 30 ml bottle with resin and the other part of the lytic media was in a separate device and the media therein was added under sterile conditions into the 30 ml bottle at the time the bottle was inoculated with both the blood sample and the microorganisms.
FIG. 3B illustrates the second sample preparation identified as “PlusLytic”. The PlusLytic preparation uses the BACTEC Plus Aerobic product that is commercially available, which is 30 ml of media in the 80 ml bottle. At the time of testing, 8 ml of blood, a predetermined amount of antibiotic, 10-100 CFU's of microorganisms, and an additional 20 mg of saponin were combined with the 30 ml of media in the bottle. […] The control test sample preparation is depicted in FIG. 3C and identified as “PlusAer”. The PlusAer preparation uses the commercially available BACTEC Plus Aerobic product without any additional media components. At the time of testing, 8 ml of blood, a predetermined amount of antibiotic and 10-100 CFU's of microorganisms are combined with the contents of the BACTEC Plus Aerobic product.
Each sample preparation was tested with 64 antibiotic/microorganism combinations. The antibiotics tested were Gentamicin, Amoxicillin-Clavulanate, Aztreonam, Ceftriaxone, Cefepime, Imipenem, Meropenem, Piperacillin-Tazobactam, Vancomycin, Tigecycline, Ciprofloxacin, Tetracycline, Fluconazole. The drug quantity inoculated into each test bottle was equivalent to the drug amount at its peak serum level in 7 ml of blood. These antibiotics were combined with certain microorganisms that they generally treat. For example, Amoxicillin-Clavulanate was combined with S. aureus, E. coli, and E. faecalis. Each sample was tested for both TTD and recovery of the microorganism in the presence of drugs.
The media was inoculated with blood sample, antibiotics and saponin a few minutes apart from each other.

**Q.** CN[C@H](CC(C)C)C(=O)N[C@H]1C(=O)N[C@@H](CC(N)=O)C(=O)N[C@H]2C(=O)N[C@H]3C(=O)N[C@H](C(=O)N[C@H](C(=O)O)c4cc(O)cc(O)c4-c4cc3ccc4O)[C@H](O)c3ccc(c(Cl)c3)Oc3cc2cc(c3O[C@@H]2O[C@H](CO)[C@@H](O)[C@H](O)[C@H]2O[C@H]2C[C@](C)(N)[C@H](O)[C@H](C)O2)Oc2ccc(cc2Cl)[C@H]1O [Vancomycin] was tested. Which “TTD of the Low Volume/Low Ratio preparation as compared to the PlusAer preparation” value did it give?
**A.** faster TTD

**Q.** With “Amoxicillin-Clavulanate [Amoxicillin/clavulanic acid]” as the molecule, how does the “TTD of the Low Volume/Low Ratio preparation as compared to the PlusAer preparation” value read?
**A.** faster TTD

**Q.** Which “TTD of the Low Volume/Low Ratio preparation as compared to the PlusAer preparation” value does the source give for C[C@@H](O)[C@H]1C(=O)N2C(C(=O)O)=C(S[C@@H]3CN[C@H](C(=O)N(C)C)C3)[C@H](C)[C@H]12 [Meropenem] here?
**A.** faster TTD

**Q.** With Gentamicin as the molecule, how does the “TTD of the Low Volume/Low Ratio preparation as compared to the PlusAer preparation” value read?
**A.** slower TTD

**Q.** CO/N=C(\C(=O)N[C@@H]1C(=O)N2C(C(=O)O)=C(CSc3nc(=O)c(=O)[nH]n3C)CS[C@H]12)c1csc(N)n1 [Ceftriaxone] was tested. Which “TTD of the Low Volume/Low Ratio preparation as compared to the PlusAer preparation” value did it give?
**A.** faster TTD
